{"source": "patent US11400082B2", "about": "“Methods of treating elevated plasma cholesterol” (Montréal Heart Institute, priority 2017, dated 2022)", "key": {"[1]": {"assay": "Cell viability assay (MTT)", "assay_type": "cell-based", "settings": "human; overnight incubation, viability relative to DMSO", "protocol": "Following incubation, media was replaced and cells incubated for 4 h with 100 μL of phenol red-free DMEM containing 0.5 mg/mL of MTT (3-[4,5-dimethylthiazol-2-yl]-2,5-diphenyltetrazolium bromide; thiazolyl blue; catalog no. M5655, Sigma-Aldrich). Afterwards, media was removed and converted dye solubilized with 100 μL acidic isopropanol (0.06 N) and absorbance measured at a wavelength of 570 nm with background subtraction at 650 nm. Arbitrary units of cell viability of a given example were determined relative to equal volume of DMSO (vehicle) for each concentration used."}, "[2]": {"system": "LDLR protein", "assay": "Western blot analysis, relative quantification of LDLR protein levels", "assay_type": "cell-based, human", "settings": "overnight, hepatoma cells (HepG2, FIG. 13), normalized to actin, vehicle (DMSO) = 1", "protocol": "For sterol-regulated conditions, HepG2 cells were incubated in 5% LPDS, 50 μM mevastatin, and 50 μM mevalonolactone in the absence (-sterols) or presence of 1 μg/ml 25-hydroxycholesterol and 10 μg/ml cholesterol (+sterols). For inhibitor treatments HepG2 cells were treated with DMSO or 10 μM compounds 2 in combination with U0126 (25 μM, catalog no. 9903, Cell Signaling Technology), Cycloheximide (CHX; 20 μg/ml, catalog no. C7698, Sigma-Aldrich), PD153035 (20 μM, catalog no. 14879, Cayman Chemical), bisindolylmaleimide I (BIM; 10 μM, catalog no. 13298, Cayman Chemical), H-89 (10 μM, catalog no. 10010556, Cayman Chemical), Dorsomorphin (5 μM, catalog no. 11967, Cayman Chemical) or 5-Azacytidine (10 μM, catalog no. A2385, Sigma-Aldrich).\nTreated cells from Example 28 were washed three times in phosphate-buffered saline (PBS) and lysed in radioimmune precipitation assay buffer (50 mM Tris/HCl, pH 8.0, 1% (v/v) Nonidet P-40, 0.5% sodium deoxycholate, 150 mM NaCl, and 0.1% (v/v) SDS) supplemented with a complete protease inhibitor mixture (catalog no. 11 697 498 001, Roche Applied Science). Proteins were separated by 8% SDS polyacrylamide gel electrophoresis, blotted on nitrocellulose membranes (Bio-Rad), and blocked for 1 h in Tris-buffered saline-Tween 20 (TBS-T; 50 mM Tris-HCl, pH 7.5, 150 mM NaCl, 0.1% Tween 20) containing 5% nonfat dry milk. Membranes were then incubated overnight in TBS-T supplemented with 1% nonfat milk and the indicated antibodies; goat anti-human LDLR (1:1000; catalog no. AF2148, R&D Systems), rabbit anti-actin (1:5000; catalog no. A2066, Sigma-Aldrich). Appropriate HRP-conjugated secondary antibodies (1:10,000; GE healthcare) were used for detection using the Western Lightning Ultra chemiluminescence kit (catalog no. NEI112001EA, PerkinElmer Life Sciences) and BioFlex EC Films (catalog no. CLEC810, InterScience). Unsaturated films were numerized using the high resolution CanoScan 9000F scanner and corresponding bands were quantified using the ImageJ software (NIH). Relative quantification of LDLR protein levels were normalized to that of actin and compared to vehicle (DMSO) herein determined as 1."}}}
{"smiles": "O=C(NO)c1ncc(COc2ccc(F)cc2)c(CO)c1O", "note": "[Compound 2, 5-(4-fluoro-phenoxymethyl)-3-hydroxy-4-hydroxymethyl-pyridine-2-carboxylic acid hydroxyamide]", "values": [{"measurement": "CC50", "setting": "[1]", "result": 50, "unit": "µM"}, {"measurement": "LDLR Fold Change 10 nM", "setting": "[2]; 10 nM", "result": 2}, {"measurement": "LDLR Fold Change 10 μM", "setting": "[2]; 10 μM", "result": 6.3}]}
